Laboratory results published in patent US20260033491A1, “FUNGAL SPORE FORMULATIONS INCLUDING CARRIER FLUIDS” (priority 2018, published 2026).

Key:
Assay type in all cases: cell-based
I. fumosorosea spores = experiment: Spore viability (germination rate) of Isaria fumosorosea spores dispersed in fluid and stored at 30° C.; conditions: I. fumosorosea spores in fluid; for spore viability [%] after 1 m (27 d) / spore viability [%] after 7 m (210 d): storage at 30° C.
Procedure: (§1) 1.5 g of I. fumosorosea pure spore powder were transferred into a formulation vessel (IKA Type DT-20 mixing vessel with dispersion tool for Ultra Turrax) using a sterile spoon. 13.5 mL of fluid were added into the respective formulation vessel and dispersed using ultra turrax tube drive control for 1 min at 3000 rpm; change direction after 30 sec. After this 2.8 mL were transferred in four sample bottles (Wheaton Serum vial, Type I) leaving little headspace and closed tight using crimpneck caps (Macherey—Nagel type N 13) Afterwards all sample bottles were transferred to an incubator set at 30° C. and stored for a given time.
(§2) In regular intervals a sample was retrieved from the storage location and analyzed for spore viability. Therefore the original samples were thoroughly homogenized. Aliquots of 0.25 g or 250 μL of each sample were transferred into 50 mL falcon tubes. The tubes were filled up to 25 g using a sterile aqueous solution containing 2% Tween 80 and homogenized by vortexing to achieve the first dilution step (1:100 dilution). This dilution was used for further dilution and spotting on agar.
Not all samples mixed well or mixed at all in 2% Tween 80. For these samples, an alternative dispersion/dilution method was applied where the oil phase is stripped from the spores first: 0.25 g or 250 μL of sample were weighted into a 2 mL Eppendorf tube, and 0.5 mL of 2% Tween 80 was added, and the mixture was transferred into an Eppendorf centrifuge where it was centrifuged for 1 min at 10.000 rpm. The supernatant (=upper oily phase) was discarded by using a pipette. Afterwards 250 μL of Breakthru S 240 were added and the spores were well dispersed. 250 μL or 0.25 g of each sample were transferred into a sterile 50 mL Falcon tube. The tubes were filled up to 25 g using a sterile aqueous solution containing 2% Tween 80 and homogenized by vortexing to achieve the first dilution step (1:100 dilution). This dilution was used for further dilution and spotting on agar.
(§3) For evaluation of spore germination rate prepare a 1:15000 dilution based on the 1:100 dilution achieved by multiple automated dilution (pipetting robot, 96 well plate). Afterwards 12×12 cm agar plates are taken and spotted with 10 times 5 μL of each sample using an automated 12-Channel pipet. Wait until liquid is soaked up by agar and transfer agar plate to an incubator and incubate at 23° C. for 16 hours. Open the plate and place it under the microscope. Randomly chose one area per spot and record the number of germinated and non-germinated spores that are within the designated field. At least 200 spores per sample need to be evaluated. If needed count more than one field per spot.

[1] = test system: Beauveria bassiana spores; experiment: Spore viability (germination rate) of Beauveria bassiana spores dispersed in fluid and stored at 30° C.; conditions: Beauveria bassiana spores in fluid; for spore viability [%] after 2 w (14 d) / spore viability [%] after 5 w (35 d): storage at 30° C.
Procedure: as §1, with “Beauveria bassiana” for “I. fumosorosea”
as §2, with “sample are” for “sample were”
For these samples, an alternative dispersion/dilution method was applied where the oil phase is stripped from the spores first: 0.25 g or 250 μL of sample are weighted into a 2 mL Eppendorf tube, and 0.5 mL of 2% Tween 80 is added, and the mixture is transferred into an Eppendorf centrifuge where it is centrifuged for 1 min at 10.000 rpm. The supernatant (=upper oily phase) is discarded by using a pipette. […] 250 μL or 0.25 g of each sample are transferred into a sterile 50 mL Falcon tube. The tubes were filled up to 25 g using a sterile aqueous solution containing 2% Tween 80 and homogenized by vortexing to achieve the first dilution step (1:100 dilution). This dilution is used for further dilution and spotting on agar.
as §3, with “20°” for “23°”, “17” for “16”

[2] = test system: Penicillium bilaii spores; experiment: Spore viability (germination rate) of Penicillium bilaii spores dispersed in fluid and stored at 30° C.; conditions: Penicillium bilaii spores in fluid; for spore viability [%] 6 w@30° C. (41-43 d) / spore viability [%] 3 m@30° C. (83-85 d): storage at 30° C.
Procedure: as §1, with “Penicillium bilaii” for “I. fumosorosea”
as §2, with “sample are” for “sample were”
Not all samples mixed well or mixed at all in 2% Tween 80. For these samples, an alternative dispersion/dilution method was applied where the oil phase is stripped from the spores first: 0.25 g or 250 μL of sample are weighted into a 2 mL Eppendorf tube, and 0.5 mL of 2% Tween 80 is added, and the mixture is transferred into an Eppendorf centrifuge where it is centrifuged for 1 min at 10.000 rpm. The supernatant (=upper oily phase) is discarded by using a pipette. Afterwards 250 μL of Breakthru S 240 are added and the spores are well dispersed. 250 μL or 0.25 g of each sample are transferred into a sterile 50 mL Falcon tube. The tubes were filled up to 25 g using a sterile aqueous solution containing 2% Tween 80 and homogenized by vortexing to achieve the first dilution step (1:100 dilution). This dilution is used for further dilution and spotting on agar.
as §3, with “20°” for “23°”, “17” for “16”

| SMILES | spore viability [%] at day 1 (I. fumosorosea spores) [%] | spore viability [%] after 1 m (27 d) (I. fumosorosea spores) [%] | spore viability [%] after 7 m (210 d) (I. fumosorosea spores) [%] | spore viability [%] at day 1 [1] [%] | spore viability [%] after 2 w (14 d) [1] [%] | spore viability [%] after 5 w (35 d) [1] [%] | spore viability [%] initial (1-2 d) [2] [%] | spore viability [%] 6 w@30° C. (41-43 d) [2] [%] | spore viability [%] 3 m@30° C. (83-85 d) [2] [%] |
| --- | --- | --- | --- | --- | --- | --- | --- | --- | --- |
| CCCCOC(=O)CCCCC(=O)OCCCC [Adimoll DB, di-n-Butyl adipate] | 89.5 | 66.6 | 60.0 | 87 | 66.1 | 37.7 | 97.5 | 90.8 | 75.5 |
| CC(=O)OCC(COC(C)=O)OC(C)=O [Triacetin, Glycerin triacetate] | 90 | 84.0 | 69.1 | 89.3 | 58.6 | 31.6 | 92.9 | 83.2 | 57.6 |
